The Ki is a measure of affinity in units of concentration, obtained from inhibition or displacement.

Data on 19 compounds can be found in patent US7446199B2, “Compositions useful as inhibitors of protein kinases” (Vertex Pharmaceuticals Incorporated, priority 2003, dated 2008).

One test deals with T1, JAK3 (Homo sapiens, UniProt P52333).
T1 sequence (P52333 1-1124): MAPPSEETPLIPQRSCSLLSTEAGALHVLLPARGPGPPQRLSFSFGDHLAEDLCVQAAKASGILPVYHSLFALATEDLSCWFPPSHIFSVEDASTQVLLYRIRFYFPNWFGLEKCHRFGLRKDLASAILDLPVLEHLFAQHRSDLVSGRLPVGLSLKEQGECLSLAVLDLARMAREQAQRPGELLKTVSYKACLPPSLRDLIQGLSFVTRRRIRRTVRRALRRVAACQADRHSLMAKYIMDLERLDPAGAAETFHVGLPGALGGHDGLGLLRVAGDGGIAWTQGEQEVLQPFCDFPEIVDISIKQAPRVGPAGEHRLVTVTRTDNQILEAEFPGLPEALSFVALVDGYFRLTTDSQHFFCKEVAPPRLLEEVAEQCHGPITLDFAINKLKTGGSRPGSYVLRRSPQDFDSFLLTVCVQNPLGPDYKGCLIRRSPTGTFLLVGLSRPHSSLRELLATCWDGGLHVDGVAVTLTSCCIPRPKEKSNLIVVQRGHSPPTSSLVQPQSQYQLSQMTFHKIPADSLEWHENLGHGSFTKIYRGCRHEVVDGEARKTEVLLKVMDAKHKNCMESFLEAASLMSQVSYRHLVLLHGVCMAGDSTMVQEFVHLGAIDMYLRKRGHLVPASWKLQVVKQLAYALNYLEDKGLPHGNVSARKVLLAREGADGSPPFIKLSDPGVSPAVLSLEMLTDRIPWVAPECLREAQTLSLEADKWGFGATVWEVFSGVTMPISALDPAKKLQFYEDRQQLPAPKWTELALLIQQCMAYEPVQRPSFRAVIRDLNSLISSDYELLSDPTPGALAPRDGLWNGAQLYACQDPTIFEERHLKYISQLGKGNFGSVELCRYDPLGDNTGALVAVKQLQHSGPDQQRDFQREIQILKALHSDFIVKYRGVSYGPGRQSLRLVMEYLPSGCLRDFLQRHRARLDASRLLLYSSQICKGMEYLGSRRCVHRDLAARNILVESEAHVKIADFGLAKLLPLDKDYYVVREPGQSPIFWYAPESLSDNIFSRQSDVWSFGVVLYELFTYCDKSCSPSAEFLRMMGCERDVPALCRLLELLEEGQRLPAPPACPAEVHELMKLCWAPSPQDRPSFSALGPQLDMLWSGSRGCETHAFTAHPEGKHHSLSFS
Nature of the test: JAK3 inhibition assay (ELISA, Poly (Glu, Ala, Tyr) coated plates). The test is classed as biochemical. The note with it: 2 mM ATP, 60 minutes at 30° C. In outline: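 ELISA on Poly(Glu,Ala,Tyr) 6:3:1-coated plates with 2 mM ATP and 5 mM MgCl2. JAK enzyme started the reaction, run 60 min at 30° C. Phosphotyrosine was detected with HRP-conjugated 4G10 antibody and TMB, read at 450 nm, and IC50 was derived from optical densities.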
For orientation: An ELISA detects its analyte on a solid surface through an enzyme-linked reagent.

The next test concerns the target T2, c-KIT (Homo sapiens, UniProt P10721).
T2 construct: 0.02% BSA and 25 nM c-KIT
The test is described as follows: Inhibition of c-KIT, radiometric filter-binding assay. The test is classed as biochemical. Conditions: 700 μM ATP, 0.5 mg/mL pE4Y, room temperature. In outline:
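Radiometric filter-binding: 25 nM c-KIT (enzyme in the Solution 2 mix) with poly(Glu,Tyr) 4:1 substrate at 0.5 mg/mL and [γ-^33P]ATP at 700 μM (both final), in HEPES pH 7.5/MgCl2/NaCl/DTT/BSA with 2.5% DMSO. Incubated 20 min at room temperature, stopped with TCA, and ^33P incorporation counted on filters. 12-point titration, final compound typically 0.01-5 μM; IC50 or Ki from curve fit.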

T2 sequence (P10721 26-976): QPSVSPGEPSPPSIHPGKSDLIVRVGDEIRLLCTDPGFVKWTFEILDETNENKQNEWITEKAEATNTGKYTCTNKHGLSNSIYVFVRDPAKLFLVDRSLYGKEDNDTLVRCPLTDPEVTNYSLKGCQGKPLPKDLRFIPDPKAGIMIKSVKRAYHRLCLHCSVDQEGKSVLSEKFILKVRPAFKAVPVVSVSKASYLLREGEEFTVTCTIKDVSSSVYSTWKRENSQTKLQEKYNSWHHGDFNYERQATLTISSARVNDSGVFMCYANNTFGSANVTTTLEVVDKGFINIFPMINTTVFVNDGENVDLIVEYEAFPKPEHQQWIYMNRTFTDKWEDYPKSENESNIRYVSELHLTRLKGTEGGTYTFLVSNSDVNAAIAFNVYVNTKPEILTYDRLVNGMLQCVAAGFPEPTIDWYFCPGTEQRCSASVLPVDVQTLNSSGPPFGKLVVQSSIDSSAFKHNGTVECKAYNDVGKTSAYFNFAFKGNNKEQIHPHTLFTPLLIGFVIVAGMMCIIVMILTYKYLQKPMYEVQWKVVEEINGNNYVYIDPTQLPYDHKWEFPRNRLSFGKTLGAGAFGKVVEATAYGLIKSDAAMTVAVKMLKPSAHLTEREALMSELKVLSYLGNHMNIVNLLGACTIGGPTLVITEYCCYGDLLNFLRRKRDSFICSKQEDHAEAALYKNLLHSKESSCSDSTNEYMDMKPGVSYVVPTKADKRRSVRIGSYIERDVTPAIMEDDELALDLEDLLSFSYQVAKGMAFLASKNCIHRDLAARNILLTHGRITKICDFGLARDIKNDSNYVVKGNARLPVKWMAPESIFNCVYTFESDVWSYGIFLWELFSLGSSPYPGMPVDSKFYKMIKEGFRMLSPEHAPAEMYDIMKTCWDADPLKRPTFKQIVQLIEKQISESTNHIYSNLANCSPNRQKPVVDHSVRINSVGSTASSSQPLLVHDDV

The compound `Fc1cccc(-c2cnoc2-c2c[nH]c3ncc(CCn4cncn4)cc23)c1F` [Compound 132, 3-[4-(2,3-Difluoro-phenyl)-isoxazol-5-yl]-5-(2-[1,2,4]triazol-1-yl-ethyl)-1H-pyrrolo[2,3-b]pyridine] had a Ki on JAK3 of 1000 to 12500 nM.
Take `C[N+]1(C)CCN(c2ccc(-c3cnc4[nH]cc(-c5oncc5-c5cccc(F)c5F)c4c3)cc2)CC1` [Compound 155]: the Ki on JAK3 and at c-KIT was less than 200 nM each time.
For the compound `Fc1cccc(-c2cnoc2-c2c[nH]c3ccc(-c4ccncc4)cc23)c1F` [Compound 34, 3-[4-(2,3-Difluoro-phenyl)-isoxazol-5-yl]-5-pyridin-4-yl-1H-indole], the Ki on JAK3 is 1000 to 12500 nM.
At JAK3, `O=C(c1cnc2[nH]cc(-c3oncc3-c3cccc(F)c3F)c2c1)N1CCCC1` [Compound 104, {3-[4-(2,3-Difluoro-phenyl)-isoxazol-5-yl]-1H-pyrrolo[2,3-b]pyridin-5-yl}-pyrrolidin-1-yl-methanone] returned a Ki of 1000 to 12500 nM.
The same measure, in the same setting: the value for `Fc1cccc(-c2cnoc2-c2c[nH]c3ncc(Cl)cc23)c1F` [Compound 44, 3-[4-(2,3-Difluoro-phenyl)-isoxazol-5-yl]-5-chloro-1H-pyrrolo[2,3-b]pyridine] was 200 to 1000 nM.
In the case of `COc1cnc2[nH]cc(-c3nncn3-c3cccc(F)c3F)c2c1` [Compound 108, 3-[4-(2,3-Difluoro-phenyl)-4H-[1,2,4]triazol-3-yl]-5-methoxy-1H-pyrrolo[2,3-b]pyridine], the values for the Ki at JAK3 and on c-KIT were 1000 to 12500 nM and 200 to 1000 nM, respectively.
In the same order, the values of `CN1CCN(C(=O)[C@H]2C[C@@H]2c2cnc3[nH]cc(-c4oncc4-c4cccc(F)c4F)c3c2)CC1` (relative stereo) [Compound 142, trans-(2-{3-[4-(2,3-Difluoro-phenyl)-isoxazol-5-yl]-1H-pyrrolo[2,3-b]pyridin-5-yl}-cyclopropyl)-(4-methyl-piperazin-1-yl)-methanone] are 200 to 1000 nM and less than 200 nM.
Consider `c1ccc(-c2cnoc2-c2c[nH]c3ncccc23)cc1` [Compound 35, 3-[4-Phenyl-isoxazol-5-yl]-1H-pyrrolo[2,3-b]pyridine], for which the Ki on JAK3 lay in the range of 200 to 1000 nM.
In the case of `Fc1cccc(-n2cnnc2-c2c[nH]c3ncc(-c4ccc(N5CCNCC5)nc4)cc23)c1F` [Compound 111, 3-[4-(2,3-Difluoro-phenyl)-4H-[1,2,4]triazol-3-yl]-5-(6-piperazin-1-yl-pyridin-3-yl)-1H-pyrrolo[2,3-b]pyridine], the Ki on JAK3 lay within 1000 to 12500 nM; at c-KIT it was 200 to 1000 nM.
On JAK3, `Fc1cnc2[nH]cc(-c3oncc3-c3cccc(F)c3F)c2c1` [Compound 45, 3-[4-(2,3-Difluoro-phenyl)-isoxazol-5-yl]-5-fluoro-1H-pyrrolo[2,3-b]pyridine] came in with a Ki of 1000 to 12500 nM.
On to `Fc1cccc(-c2cnoc2-c2c[nH]c3nc(Cl)c(-c4ccncc4)cc23)c1F` [Compound 103, 6-Chloro-3-[4-(2,3-difluoro-phenyl)-isoxazol-5-yl]-5-pyridin-4-yl-1H-pyrrolo[2,3-b]pyridine], for which the Ki on JAK3 was 1000 to 12500 nM.
Still for that read-out and setting: next, `Fc1cccc(-c2cnoc2-c2n[nH]c3ncccc23)c1F` [Compound 31, 3-(4-(2,3-difluorophenyl)isoxazol-5-yl)-1H-pyrazolo[3,4-b]pyridine]: 1000 to 12500 nM.
On the same count and under the same terms, next, `OB(O)c1cnc2[nH]cc(-c3oncc3-c3cccc(F)c3F)c2c1` [Compound 154]: less than 200 nM; `Fc1cc(F)c(F)c(-c2cnoc2-c2c[nH]c3ncccc23)c1` [Compound 39, 3-[4-(2,3,5-Trifluoro-phenyl)-isoxazol-5-yl]-1H-pyrrolo [2,3-b]pyridine]: 200 to 1000 nM.
On to `Cc1cnc2[nH]cc(-c3oncc3-c3cccc(F)c3F)c2c1` [Compound 46, 3-[4-(2,3-Difluoro-phenyl)-isoxazol-5-yl]-5-methyl-1H-pyrrolo[2,3-b]pyridine], for which the Ki at JAK3 and at c-KIT was 200 to 1000 nM each time.
With `CN(C)C1CCC(c2cnc3[nH]cc(-c4oncc4-c4cccc(F)c4F)c3c2)CC1` (stereo not drawn) [Compound 141, (4-{3-[4-(2,3-Difluoro-phenyl)-isoxazol-5-yl]-1H-pyrrolo[2,3-b]pyridin-5-yl}-cyclohexyl)-dimethylamine], the Ki is 200 to 1000 nM on JAK3 and less than 200 nM on c-KIT.
For `NC(=O)c1ccc(-c2cnc3[nH]cc(-c4oncc4-c4cccc(F)c4F)c3c2)cc1` [Compound 153], in that order: less than 200 nM and less than 200 nM.
Turning to `OCc1cnc2[nH]cc(-c3oncc3-c3cccc(F)c3F)c2c1` [Compound 55, {3-[4-(2,3-Difluoro-phenyl)-isoxazol-5-yl]-1H-pyrrolo[2,3-b]pyridin-5-yl}-methanol], the Ki on JAK3 was in the range of 1000 to 12500 nM; on c-KIT, 200 to 1000 nM.
Compound `Fc1ccc(F)c(-c2cnoc2-c2c[nH]c3ncccc23)c1F` [Compound 41, 3-[4-(2,3,6-Trifluoro-phenyl)-isoxazol-5-yl]-1H-pyrrolo [2,3-b]pyridine] yielded a Ki at JAK3 of less than 200 nM.
